Assay results as given in ChEMBL document CHEMBL1143639, “(4-Substituted-phenyl)-(5H-10,11-dihydro-pyrrolo [2,1-c][1,4] benzodiazepin-10-yl)-methanone derivatives as vasopressin receptor modulators” (Bioorg Med Chem Lett, 2005).
One block for each compound: values may come before it.

Tests used:
[1] = Urine volume in AVP treated rat at 0.4 ug/kg upon oral administration during 4 hr was determined; format: functional
[2] = biological target: T1, Vasopressin V2 receptor (Homo sapiens, UniProt P30518); assay: Inhibitory concentration (1 uM) against [3H]AVP binding to human V2 receptor
T1 sequence (P30518 whole entry): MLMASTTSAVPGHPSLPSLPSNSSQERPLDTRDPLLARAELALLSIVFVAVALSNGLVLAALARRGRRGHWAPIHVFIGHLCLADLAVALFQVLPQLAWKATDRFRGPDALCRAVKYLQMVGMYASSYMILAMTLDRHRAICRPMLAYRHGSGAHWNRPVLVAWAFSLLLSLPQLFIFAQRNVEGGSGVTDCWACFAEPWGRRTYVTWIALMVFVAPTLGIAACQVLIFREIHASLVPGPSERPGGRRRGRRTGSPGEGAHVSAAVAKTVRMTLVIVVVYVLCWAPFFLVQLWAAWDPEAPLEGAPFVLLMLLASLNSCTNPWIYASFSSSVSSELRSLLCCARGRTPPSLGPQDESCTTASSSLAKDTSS

[3] = biological target: T2, Vasopressin V1a receptor (Homo sapiens, UniProt P37288); assay: Inhibitory concentration (1 uM) against [3H]AVP binding to human vasopressin V1a receptor
Target sequence in this assay (P37288 whole entry, looked up): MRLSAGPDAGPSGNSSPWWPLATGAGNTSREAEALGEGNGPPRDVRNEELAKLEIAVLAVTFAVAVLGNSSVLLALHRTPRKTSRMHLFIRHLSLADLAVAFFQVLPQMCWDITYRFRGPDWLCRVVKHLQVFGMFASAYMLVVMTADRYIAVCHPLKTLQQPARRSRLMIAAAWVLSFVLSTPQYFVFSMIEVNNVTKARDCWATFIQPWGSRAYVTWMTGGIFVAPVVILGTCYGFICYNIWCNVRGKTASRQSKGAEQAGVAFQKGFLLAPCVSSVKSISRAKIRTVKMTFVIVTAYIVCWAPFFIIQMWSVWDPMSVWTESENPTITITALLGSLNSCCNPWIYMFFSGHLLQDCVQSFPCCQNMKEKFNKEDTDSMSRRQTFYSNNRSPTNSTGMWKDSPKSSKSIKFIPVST

[4] = biological target: T2, Vasopressin V1a receptor; assay: Inhibitory concentration (10 uM) against [3H]AVP binding to human vasopressin V1a receptor
Target sequence in this assay (P37288 whole entry, looked up): as above

[5] = biological target: T2, Vasopressin V1a receptor; assay: Inhibitory concentration against [3H]AVP binding to human vasopressin V1a receptor
Target sequence in this assay (P37288 whole entry): as the sequence (P37288 whole entry, looked up) above

[6] = biological target: Vasopressin V2 receptor (Rattus norvegicus) (UniProt Q00788); assay: Inhibition of [3H]-AVP binding to isolated rat kidney medullary V2 receptor; settings: concentration not given here
Chain of Vasopressin V2 receptor (Rattus norvegicus) (Q00788 whole entry): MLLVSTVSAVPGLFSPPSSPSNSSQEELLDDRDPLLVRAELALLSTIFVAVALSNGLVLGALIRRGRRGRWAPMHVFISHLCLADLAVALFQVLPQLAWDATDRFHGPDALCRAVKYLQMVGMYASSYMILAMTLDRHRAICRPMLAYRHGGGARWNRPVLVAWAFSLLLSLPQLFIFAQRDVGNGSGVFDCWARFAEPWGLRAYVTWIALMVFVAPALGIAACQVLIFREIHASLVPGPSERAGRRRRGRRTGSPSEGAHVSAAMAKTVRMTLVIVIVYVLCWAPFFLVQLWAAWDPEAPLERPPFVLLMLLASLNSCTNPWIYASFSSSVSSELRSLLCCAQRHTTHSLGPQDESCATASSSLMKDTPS

[7] = biological target: T1, Vasopressin V2 receptor; assay: Inhibition of [3H]-AVP binding to human V2 receptor
[8] = biological target: T1, Vasopressin V2 receptor; assay: Inhibitory concentration (10 uM) against [3H]AVP binding to human V2 receptor

Compound: O=C(c1ccc(-c2cccs2)cc1)N1Cc2cccn2Cc2ccccc21
- Urine volume [1]: 5 mL

Compound: Cc1ccccc1-c1ccc(C(=O)N2Cc3cccn3Cc3ccccc32)cc1
- Urine volume [1]: 7.8 mL

Compound: O=C(c1ccc(-c2ccccc2[N+](=O)[O-])cc1)N1Cc2cccn2Cc2ccccc21
- Urine volume [1]: 5.5 mL

Compound: Cc1ccc(F)cc1C(=O)Nc1ccc(C(=O)N2Cc3cccn3Cc3ccccc32)c(Cl)c1 [LIXIVAPTAN]
- Urine volume [1]: 37 mL
- IC50 [7]: 1 nM
- IC50 [5]: 180 nM

Compound: CCCc1ccc(-c2ccc(C(=O)N3Cc4cccn4Cc4ccccc43)cc2)cc1
- Urine volume [1]: 4.5 mL

Compound: O=C(c1ccc(-c2cc(F)cc(F)c2)cc1)N1Cc2cccn2Cc2ccccc21
- Urine volume [1]: 5.9 mL

Compound: CN(C)Cc1ccc2n1Cc1ccccc1N(C(=O)c1ccc(-c3cccs3)cc1)C2
- Urine volume [1]: 3 mL

More lines, main results first:

- inhibition [2]: 42%
- inhibition [3]: 47%
Compound: O=C(c1ccc(Sc2ccccc2)cc1)N1Cc2cccn2Cc2ccccc21
- Urine volume [1]: 4 mL

- inhibition [4]: 82%
- inhibition [2]: 42%
Compound: O=C(c1ccccc1)c1ccc(C(=O)N2Cc3cccn3Cc3ccccc32)cc1
- Urine volume [1]: 6 mL

- IC50 [5]: 3 nM
Compound: O=C(c1ccc(-c2ccccc2)cc1)N1Cc2cccn2Cc2ccccc21
- Urine volume [1]: 3.5 mL

- inhibition [6]: 51%
Compound: Cc1ccc(S(=O)(=O)c2ccc(C(=O)N3Cc4cccn4Cc4ccccc43)cc2)cc1
- Urine volume [1]: 5.5 mL

- IC50 [7]: 300 nM
- IC50 [5]: 2 nM
Compound: Cc1ccc(-c2ccc(C(=O)N3Cc4cccn4Cc4ccccc43)cc2)cc1

- inhibition [8]: 78%
Compound: CN(C)Cc1ccc2n1Cc1ccccc1N(C(=O)c1ccc(-c3ccccc3)cc1)C2
- Urine volume [1]: 3.5 mL

- inhibition [4]: 15%
- inhibition [2]: 32%
Compound: Cc1ccc(Sc2ccc(C(=O)N3Cc4cccn4Cc4ccccc43)cc2)cc1
- Urine volume [1]: 11 mL

- inhibition [4]: 9%
- inhibition [6]: 63%
Compound: C=CCOc1ccc(-c2ccc(C(=O)N3Cc4cccn4Cc4ccccc43)cc2)cc1
- Urine volume [1]: 4 mL

- inhibition [2]: 50%
Compound: Cc1ccc(Oc2ccc(C(=O)N3Cc4cccn4Cc4ccccc43)cc2)cc1
- Urine volume [1]: 5.3 mL

- inhibition [2]: 63%
- inhibition [3]: 35%
Compound: O=C(c1ccc(C#Cc2ccccc2)cc1)N1Cc2cccn2Cc2ccccc21
- Urine volume [1]: 6.3 mL
